{"source": "patent US20020137929A1", "about": "“1 - (3-heterocyclylphenyl) isothiourea, -isourea, -guanidine and -amidine herbicidal agents” (Intellectual Property Department, BASF Aktiengesellschaft, priority 1998, published 2002)", "key": {"AMBEL (Ragweed, Common)": {"tested_on": "AMBEL (Ragweed, Common)", "experiment": "Postemergence herbicidal evaluation", "assay_type": "in vivo, Ambrosia artemisifolia", "conditions": "postemergence", "procedure,_shortened": "(§1)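 First, seedlings were raised for around two weeks. Next, test material in 50/50 acetone/water containing 0.5% TWEEN 20 was sprayed through a nozzle at 40 psi, equivalent to about 0.0156–0.500 kg/ha. Finally, after 4–5 weeks in the greenhouse, plants were rated 0–9.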"}, "[1]": {"tested_on": "CHEAL (Lambsquarters, Common)", "experiment": "Preemergence herbicidal evaluation", "assay_type": "in vivo, Chenopodium album", "conditions": "rated 4-5 weeks after treatment", "procedure,_shortened": "(§2)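 Scores (0–9) reflect visual comparison with control plants for stand, vigor, malformation, size and chlorosis. Compound was applied to the soil after sowing, before emergence, as an aqueous acetone spray (about 0.0156–0.500 kg/ha), and cups were kept in a greenhouse for 4–5 weeks.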"}, "[2]": {"tested_on": "IPOSS (Morningglory Spp.)", "experiment": "Preemergence herbicidal evaluation", "assay_type": "in vivo, Ipomoea Spp.", "conditions": "rated 4-5 weeks after treatment", "procedure,_shortened": "as §2"}, "[3]": {"tested_on": "SAGPY (Arrowhead (Pygmaea))", "experiment": "Postemergence weed control under flooded paddy conditions", "assay_type": "in vivo, Sagittaria pygmaea", "conditions": "postemergence weeds, 3-4 weeks after treatment", "procedure,_shortened": "(§3)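 Weeds 3 to 5 cm tall and rice seedlings at the 1.5 to 2.5 leaf stage were flooded, with water held 1.5 to 3 cm above the soil. Compounds in 50/50 v/v aqueous/acetone went into the flood water at about 0.0313 to 0.500 kg/ha. Visual 0-9 ratings versus control were made 3 to 4 weeks later.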"}, "[4]": {"tested_on": "TRZAWR (Wheat, Winter, cv Riband)", "experiment": "Postemergence herbicidal evaluation", "assay_type": "in vivo, Triticum aestivum", "conditions": "postemergence", "procedure,_shortened": "as §1"}, "GALAP (Galium)": {"tested_on": "GALAP (Galium)", "experiment": "Postemergence herbicidal evaluation", "assay_type": "in vivo, Galium aparine", "conditions": "postemergence", "procedure,_shortened": "as §1"}, "[5]": {"tested_on": "IPOSS (Morningglory Spp.)", "experiment": "Postemergence herbicidal evaluation", "assay_type": "in vivo, Ipomoea Spp.", "procedure,_shortened": "as §1"}, "MOOVA (Monochoria)": {"tested_on": "MOOVA (Monochoria)", "experiment": "Postemergence weed control under flooded paddy conditions", "assay_type": "in vivo, Monochoria vaginalis", "conditions": "postemergence weeds, 3-4 weeks after treatment", "procedure,_shortened": "as §3"}, "ORYSAT (Rice, Tebonnet) [6]": {"tested_on": "ORYSAT (Rice, Tebonnet)", "experiment": "Rice tolerance to post-transplant applications, flooded paddy conditions (Table III)", "assay_type": "in vivo, Oryza sativa, (L.) Tebonnet", "conditions": "in vivo", "procedure,_shortened": "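Two ten-day-old Tebonnet seedlings transplanted into flooded silt loam (water 1.5 to 3 cm above soil); three days later the water surface was treated with compound in aqueous/acetone 50/50 at about 0.0313 to 0.500 kg/ha. Visual 0-9 injury rating versus control after three to four weeks in greenhouse.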"}, "ORYSAT (Rice, Tebonnet) [7]": {"tested_on": "ORYSAT (Rice, Tebonnet)", "experiment": "Rice tolerance to post-transplant applications, flooded paddy conditions (Table IV)", "assay_type": "in vivo, Oryza sativa, (L.) Tebonnet", "conditions": "in vivo", "procedure,_shortened": "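Herbicidal effect is judged by eye on a 0–9 scale versus control, 3–4 weeks after dosing. Dosing is into flood water kept 1.5–3 cm over the soil, at about 0.0313–0.500 kg/ha in aqueous/acetone 50/50 v/v, on 3–5 cm weeds and 1.5–2.5-leaf rice seedlings.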"}, "GLXMA (Soybean)": {"tested_on": "GLXMA (Soybean)", "experiment": "Preemergence herbicidal evaluation", "assay_type": "in vivo, Glycine max", "conditions": "rated 4-5 weeks after treatment", "excerpt": "Results of herbicide evaluation are expressed on a rating scale (0-9). The scale is based upon a visual observation of plant stand, vigor, malformation, size, chlorosis and overall plant appearance as compared with a control.\nThe preemergence herbicidal activity of the test compounds of the present invention is exemplified by the following tests in which the seeds of a variety of monocotyledonous and dicotyledonous plants are separately mixed with potting soil and planted on top of approximately one inch of soil in separate pint cups. After planting, the cups are sprayed with the selected aqueous acetone solution containing test compound in sufficient quantity to provide the equivalent of about 0.0156 to 0.500 kg per hectare of test compound per cup. The treated cups are then placed on greenhouse benches, watered and cared for in accordance with conventional greenhouse procedures. From four to five weeks after treatment, the tests are terminated and each cup is examined and rated according to the rating system provided in Example 37.\nThe compounds evaluated are reported by compound number given in Example 37."}}, "data": [{"smiles": "CN1C(=O)CS/C1=N/c1cc(-n2c(=O)cc(C(F)(F)F)n(C)c2=O)c(F)cc1Cl", "note": "[Compound 7]", "values": [{"measurement": "AMBEL herbicidal rating", "setting": "AMBEL (Ragweed, Common); rate 0.0157 kg/ha", "value": 5.0}, {"measurement": "AMBEL herbicidal rating", "setting": "AMBEL (Ragweed, Common); rate 0.0313 kg/ha", "value": 5.0}, {"measurement": "AMBEL herbicidal rating", "setting": "AMBEL (Ragweed, Common); rate 0.0625 kg/ha", "value": 7.0}, {"measurement": "AMBEL herbicidal rating", "setting": "AMBEL (Ragweed, Common); rate 0.1250 kg/ha", "value": 9.0}, {"measurement": "CHEAL preemergence herbicidal rating", "setting": "[1]; rate 0.0157 kg/ha", "value": 9.0}, {"measurement": "CHEAL preemergence herbicidal rating", "setting": "[1]; rate 0.0313 kg/ha", "value": 9.0}, {"measurement": "CHEAL preemergence herbicidal rating", "setting": "[1]; rate 0.0625 kg/ha", "value": 9.0}, {"measurement": "CHEAL preemergence herbicidal rating", "setting": "[1]; rate 0.1250 kg/ha", "value": 9.0}, {"measurement": "CHEAL preemergence herbicidal rating", "setting": "[1]; rate 0.2500 kg/ha", "value": 9.0}, {"measurement": "IPOSS preemergence herbicidal rating", "setting": "[2]; rate 0.0157 kg/ha", "value": 9.0}, {"measurement": "IPOSS preemergence herbicidal rating", "setting": "[2]; rate 0.0313 kg/ha", "value": 9.0}, {"measurement": "IPOSS preemergence herbicidal rating", "setting": "[2]; rate 0.0625 kg/ha", "value": 9.0}, {"measurement": "IPOSS preemergence herbicidal rating", "setting": "[2]; rate 0.1250 kg/ha", "value": 9.0}, {"measurement": "IPOSS preemergence herbicidal rating", "setting": "[2]; rate 0.2500 kg/ha", "value": 9.0}, {"measurement": "Herbicidal rating SAGPY", "setting": "[3]; rate 0.0313 kg/ha", "value": 3.0}, {"measurement": "Herbicidal rating SAGPY", "setting": "[3]; rate 0.0625 kg/ha", "value": 5.5}, {"measurement": "Herbicidal rating SAGPY", "setting": "[3]; rate 0.1250 kg/ha", "value": 7.5}, {"measurement": "Herbicidal rating SAGPY", "setting": "[3]; rate 0.2500 kg/ha", "value": 8.5}, {"measurement": "TRZAWR herbicidal rating", "setting": "[4]; rate 0.0157 kg/ha", "value": 4.5}, {"measurement": "TRZAWR herbicidal rating", "setting": "[4]; rate 0.0313 kg/ha", "value": 3.0}, {"measurement": "TRZAWR herbicidal rating", "setting": "[4]; rate 0.0625 kg/ha", "value": 5.0}, {"measurement": "TRZAWR herbicidal rating", "setting": "[4]; rate 0.1250 kg/ha", "value": 6.0}, {"measurement": "GALAP herbicidal rating", "setting": "GALAP (Galium); rate 0.0157 kg/ha", "value": 3.0}, {"measurement": "GALAP herbicidal rating", "setting": "GALAP (Galium); rate 0.0313 kg/ha", "value": 4.0}, {"measurement": "GALAP herbicidal rating", "setting": "GALAP (Galium); rate 0.0625 kg/ha", "value": 5.0}, {"measurement": "GALAP herbicidal rating", "setting": "GALAP (Galium); rate 0.1250 kg/ha", "value": 9.0}, {"measurement": "IPOSS herbicidal rating", "setting": "[5]; rate 0.0157 kg/ha", "value": 6.0}, {"measurement": "IPOSS herbicidal rating", "setting": "[5]; rate 0.0313 kg/ha", "value": 7.0}, {"measurement": "IPOSS herbicidal rating", "setting": "[5]; rate 0.0625 kg/ha", "value": 9.0}, {"measurement": "Herbicidal rating MOOVA", "setting": "MOOVA (Monochoria); rate 0.0313 kg/ha", "value": 9.0}, {"measurement": "Herbicidal rating MOOVA", "setting": "MOOVA (Monochoria); rate 0.0625 kg/ha", "value": 9.0}, {"measurement": "Herbicidal rating MOOVA", "setting": "MOOVA (Monochoria); rate 0.1250 kg/ha", "value": 9.0}, {"measurement": "Herbicidal rating MOOVA", "setting": "MOOVA (Monochoria); rate 0.2500 kg/ha", "value": 9.0}]}, {"smiles": "CCOC(=O)CN1C(=O)C(CC(=O)O)S/C1=N/c1cc(-n2c(=O)cc(C(F)(F)F)n(C)c2=O)c(F)cc1Cl", "note": "(stereo not shown) [Compound 16]", "values": [{"measurement": "AMBEL herbicidal rating", "setting": "AMBEL (Ragweed, Common); rate 0.0157 kg/ha", "value": 9.0}, {"measurement": "AMBEL herbicidal rating", "setting": "AMBEL (Ragweed, Common); rate 0.0313 kg/ha", "value": 8.0}, {"measurement": "AMBEL herbicidal rating", "setting": "AMBEL (Ragweed, Common); rate 0.0625 kg/ha", "value": 9.0}, {"measurement": "AMBEL herbicidal rating", "setting": "AMBEL (Ragweed, Common); rate 0.1250 kg/ha", "value": 9.0}, {"measurement": "AMBEL herbicidal rating", "setting": "AMBEL (Ragweed, Common); rate 0.2500 kg/ha", "value": 9.0}, {"measurement": "CHEAL preemergence herbicidal rating", "setting": "[1]; rate 0.0156 kg/ha", "value": 5.7}, {"measurement": "CHEAL preemergence herbicidal rating", "setting": "[1]; rate 0.0313 kg/ha", "value": 8.4}, {"measurement": "CHEAL preemergence herbicidal rating", "setting": "[1]; rate 0.0625 kg/ha", "value": 8.8}, {"measurement": "CHEAL preemergence herbicidal rating", "setting": "[1]; rate 0.1250 kg/ha", "value": 9.0}, {"measurement": "CHEAL preemergence herbicidal rating", "setting": "[1]; rate 0.2500 kg/ha", "value": 9.0}, {"measurement": "CHEAL preemergence herbicidal rating", "setting": "[1]; rate 0.5000 kg/ha", "value": 9.0}, {"measurement": "Herbicidal rating ORYSAT (rice tolerance)", "setting": "ORYSAT (Rice, Tebonnet) [6]", "value": 0.0}, {"measurement": "Herbicidal rating ORYSAT (rice tolerance)", "setting": "ORYSAT (Rice, Tebonnet) [7]", "value": 0.0}, {"measurement": "Herbicidal rating SAGPY", "setting": "[3]; rate 0.0313 kg/ha", "value": 0.0}, {"measurement": "Herbicidal rating SAGPY", "setting": "[3]; rate 0.0625 kg/ha", "value": 0.0}, {"measurement": "Herbicidal rating SAGPY", "setting": "[3]; rate 0.1250 kg/ha", "value": 0.0}, {"measurement": "Herbicidal rating SAGPY", "setting": "[3]; rate 0.2500 kg/ha", "value": 0.0}, {"measurement": "TRZAWR herbicidal rating", "setting": "[4]; rate 0.0157 kg/ha", "value": 7.5}, {"measurement": "TRZAWR herbicidal rating", "setting": "[4]; rate 0.0313 kg/ha", "value": 6.5}, {"measurement": "TRZAWR herbicidal rating", "setting": "[4]; rate 0.0625 kg/ha", "value": 7.5}, {"measurement": "TRZAWR herbicidal rating", "setting": "[4]; rate 0.1250 kg/ha", "value": 7.9}, {"measurement": "TRZAWR herbicidal rating", "setting": "[4]; rate 0.2500 kg/ha", "value": 8.5}, {"measurement": "GALAP herbicidal rating", "setting": "GALAP (Galium); rate 0.0157 kg/ha", "value": 5.0}, {"measurement": "GALAP herbicidal rating", "setting": "GALAP (Galium); rate 0.0313 kg/ha", "value": 5.3}, {"measurement": "GALAP herbicidal rating", "setting": "GALAP (Galium); rate 0.0625 kg/ha", "value": 6.8}, {"measurement": "GALAP herbicidal rating", "setting": "GALAP (Galium); rate 0.1250 kg/ha", "value": 8.4}, {"measurement": "GALAP herbicidal rating", "setting": "GALAP (Galium); rate 0.2500 kg/ha", "value": 9.0}, {"measurement": "GLXMA preemergence herbicidal rating", "setting": "GLXMA (Soybean); rate 0.0156 kg/ha", "value": 0.0}, {"measurement": "GLXMA preemergence herbicidal rating", "setting": "GLXMA (Soybean); rate 0.0313 kg/ha", "value": 0.0}, {"measurement": "GLXMA preemergence herbicidal rating", "setting": "GLXMA (Soybean); rate 0.0625 kg/ha", "value": 2.0}, {"measurement": "GLXMA preemergence herbicidal rating", "setting": "GLXMA (Soybean); rate 0.1250 kg/ha", "value": 2.0}, {"measurement": "GLXMA preemergence herbicidal rating", "setting": "GLXMA (Soybean); rate 0.2500 kg/ha", "value": 3.5}, {"measurement": "GLXMA preemergence herbicidal rating", "setting": "GLXMA (Soybean); rate 0.5000 kg/ha", "value": 7.0}, {"measurement": "Herbicidal rating MOOVA", "setting": "MOOVA (Monochoria); rate 0.0313 kg/ha", "value": 9.0}, {"measurement": "Herbicidal rating MOOVA", "setting": "MOOVA (Monochoria); rate 0.0625 kg/ha", "value": 9.0}, {"measurement": "Herbicidal rating MOOVA", "setting": "MOOVA (Monochoria); rate 0.1250 kg/ha", "value": 9.0}, {"measurement": "Herbicidal rating MOOVA", "setting": "MOOVA (Monochoria); rate 0.2500 kg/ha", "value": 3.0}]}]}
